Earlier results as cited in patent US20200390965A1, “TAILORED DOSE OF CONTRAST AGENT” (GE HEALTHCARE AS, priority 2017, published 2020).

Settings: powder form; aggregates dissolve very slowly

SMILES | solubility in water
CC(=O)N(CC(O)CO)c1c(I)c(C(=O)NCC(O)CO)c(I)c(C(=O)NCC(O)CO)c1I (centres unmarked) [iohexol] | highly soluble in water
CC(=O)N(CC(O)CN(C(C)=O)c1c(I)c(C(=O)NCC(O)CO)c(I)c(C(=O)NCC(O)CO)c1I)c1c(I)c(C(=O)NCC(O)CO)c(I)c(C(=O)NCC(O)CO)c1I (centres unmarked) [iodixanol] | highly soluble in water
